From patent publication US20250059198A1, “BRM DEGRADING COMPOUNDS AND ASSOCIATED METHODS OF USE” (Arvinas Operations, Inc., priority 2021, published 2025)

Molecular target: T1, BRM (Homo sapiens, UniProt P51531)
T1 construct: Western Blot Screen of BRM Degradation in SW1573 Cells; endogenous in cells; host or cells: SW1573 cells
Experiment: BRM degradation (Dmax and DC50) in SW1573 cells, Western blot screen / In-Cell Western screen
Assay type: cell-based
Settings: overnight (18-20 hours) treatment; for Dmax: read-out: Dmax (%)** (% degraded)
Procedure, shortened: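 SW1573 cells were treated with compound for 18–20 h (final 0.1% DMSO). BRM was quantified either by Western blot of RIPA lysates or by fixed-cell In-Cell Western (LI-COR, 800/680 nm), each normalised to alpha-tubulin, giving Dmax and DC50.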

T1 sequence (P51531 whole entry): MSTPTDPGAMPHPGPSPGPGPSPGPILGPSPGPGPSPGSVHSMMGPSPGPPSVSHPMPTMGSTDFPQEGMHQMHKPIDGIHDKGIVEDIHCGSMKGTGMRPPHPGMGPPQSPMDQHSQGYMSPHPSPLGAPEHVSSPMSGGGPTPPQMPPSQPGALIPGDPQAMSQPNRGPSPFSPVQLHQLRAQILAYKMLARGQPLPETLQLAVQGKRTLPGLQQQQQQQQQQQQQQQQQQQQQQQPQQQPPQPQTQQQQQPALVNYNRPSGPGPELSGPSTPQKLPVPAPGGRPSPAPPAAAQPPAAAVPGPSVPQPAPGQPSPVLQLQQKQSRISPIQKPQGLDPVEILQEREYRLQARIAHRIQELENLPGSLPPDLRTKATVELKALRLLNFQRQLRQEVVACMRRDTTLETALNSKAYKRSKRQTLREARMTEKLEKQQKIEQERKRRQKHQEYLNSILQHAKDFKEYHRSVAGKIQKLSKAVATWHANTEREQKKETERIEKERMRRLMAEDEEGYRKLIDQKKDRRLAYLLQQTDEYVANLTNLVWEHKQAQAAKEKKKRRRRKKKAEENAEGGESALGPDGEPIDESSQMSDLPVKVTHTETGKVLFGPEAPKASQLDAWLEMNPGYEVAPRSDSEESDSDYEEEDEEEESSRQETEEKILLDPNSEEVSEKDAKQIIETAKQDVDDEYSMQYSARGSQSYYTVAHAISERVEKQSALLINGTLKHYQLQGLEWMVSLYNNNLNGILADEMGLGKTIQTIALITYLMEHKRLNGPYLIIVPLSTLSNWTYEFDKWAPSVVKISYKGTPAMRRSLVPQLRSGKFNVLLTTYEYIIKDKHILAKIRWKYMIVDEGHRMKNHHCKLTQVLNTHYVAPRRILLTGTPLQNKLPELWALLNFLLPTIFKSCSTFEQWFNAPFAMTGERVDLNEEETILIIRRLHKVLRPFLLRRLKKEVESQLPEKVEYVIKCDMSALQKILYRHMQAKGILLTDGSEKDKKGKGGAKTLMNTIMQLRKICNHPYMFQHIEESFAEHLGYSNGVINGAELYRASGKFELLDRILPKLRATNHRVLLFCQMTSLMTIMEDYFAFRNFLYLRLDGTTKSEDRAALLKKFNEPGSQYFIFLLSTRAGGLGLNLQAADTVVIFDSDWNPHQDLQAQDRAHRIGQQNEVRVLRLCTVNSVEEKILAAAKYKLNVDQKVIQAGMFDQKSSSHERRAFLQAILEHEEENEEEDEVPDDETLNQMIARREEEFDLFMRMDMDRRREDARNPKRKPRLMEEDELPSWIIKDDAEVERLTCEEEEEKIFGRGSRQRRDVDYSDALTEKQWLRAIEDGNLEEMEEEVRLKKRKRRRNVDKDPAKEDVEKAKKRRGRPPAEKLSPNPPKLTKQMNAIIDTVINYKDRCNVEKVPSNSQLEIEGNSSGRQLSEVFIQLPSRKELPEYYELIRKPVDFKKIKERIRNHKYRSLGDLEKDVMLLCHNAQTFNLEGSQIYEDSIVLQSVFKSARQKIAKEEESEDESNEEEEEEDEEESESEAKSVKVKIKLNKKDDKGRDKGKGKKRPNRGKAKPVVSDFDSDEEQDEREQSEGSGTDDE

## CC(C)[C@H](C(=O)N1C[C@H](O)C[C@H]1C(=O)N[C@@H](C)c1ccc(-c2ccnn2C)cc1)c1cc(N2CCC(OC3CCN(CC4CC(N5CCC([C@H](C)n6cc(C#Cc7cc(-c8ccccc8O)nnc7N)cn6)CC5)C4)CC3)CC2)no1 (stereo partly drawn) [Compound 111, (2S,4R)-1-[(2S)-2-{3-[4-({1-[(3-{4-[(1S)-1-(4-{2-[3-amino-6-(2-hydroxyphenyl)pyridazin-4-yl]ethynyl}-1H-pyrazol-1-yl)ethyl]piperidin-1-yl}cyclobutyl)methyl]piperidin-4-yl}oxy)piperidin-1-yl]-1,2-oxazol-5-yl}-3-methylbutanoyl]-4-hydroxy-N-[(1S)-1-[4-(1-methyl-1H-pyrazol-5-yl)phenyl]ethyl]pyrrolidine-2-carboxamide]
  DC50: ≥ 30 nM

## CC(C)[C@@H](C(=O)N1C[C@H](O)C[C@H]1C(=O)N[C@@H](C)c1ccc(-c2ccnn2C)cc1)c1cc(N2CCC(OC3CCN(CC4CC(N5CCC([C@H](C)n6cc(C#Cc7cc(-c8ccccc8O)nnc7N)cn6)CC5)C4)CC3)CC2)no1 (stereo partly drawn) [Compound 112, (2S,4R)-1-[(2R)-2-{3-[4-({1-[(3-{4-[(1S)-1-(4-{2-[3-amino-6-(2-hydroxyphenyl)pyridazin-4-yl]ethynyl}-1H-pyrazol-1-yl)ethyl]piperidin-1-yl}cyclobutyl)methyl]piperidin-4-yl}oxy)piperidin-1-yl]-1,2-oxazol-5-yl}-3-methylbutanoyl]-4-hydroxy-N-[(1S)-1-[4-(1-methyl-1H-pyrazol-5-yl)phenyl]ethyl]pyrrolidine-2-carboxamide]
  DC50: < 2.5 nM
  Dmax: > 75%

## Cc1ncsc1-c1ccc([C@H](C)NC(=O)[C@@H]2C[C@@H](O)CN2C(=O)[C@@H](c2cc(N3CCC(CN4CCC5(CC4)CC(N4CCO[C@@H](CNC6CCN(c7cc(-c8ccccc8O)nnc7N)CC6)C4)C5)CC3)no2)C(C)C)cc1 [Compound 113, (2S,4R)-1-[(2R)-2-{3-[4-({2-[(2S)-2-[({1-[3-amino-6-(2-hydroxyphenyl)pyridazin-4-yl]piperidin-4-yl}amino)methyl]morpholin-4-yl]-7-azaspiro[3.5]nonan-7-yl}methyl)piperidin-1-yl]-1,2-oxazol-5-yl}-3-methylbutanoyl]-4-hydroxy-N-[(1S)-1-[4-(4-methyl-1,3-thiazol-5-yl)phenyl]ethyl]pyrrolidine-2-carboxamide]
  DC50: < 2.5 nM
  Dmax: > 75%

## CC(C)[C@H](C(=O)N1C[C@H](O)C[C@H]1C(=O)N[C@@H](C)c1ccc(-c2ccnn2C)cc1)c1cc(N2CCC(CN3CCC(O[C@H]4C[C@H](OC(=O)N5CCN(c6cc(-c7ccccc7O)nnc6N)CC5)C4)CC3)CC2)no1 [Compound 114, (1r,3r)-3-({1-[(1-{5-[(2S)-1-[(2S,4R)-4-hydroxy-2-{[(1S)-1-[4-(1-methyl-1H-pyrazol-5-yl)phenyl]ethyl]carbamoyl}pyrrolidin-1-yl]-3-methyl-1-oxobutan-2-yl]-1,2-oxazol-3-yl}piperidin-4-yl)methyl]piperidin-4-yl}oxy)cyclobutyl 4-[3-amino-6-(2-hydroxyphenyl)pyridazin-4-yl]piperazine-1-carboxylate]
  DC50: ≥ 30 nM

## CC(C)[C@@H](C(=O)N1C[C@H](O)C[C@H]1C(=O)N[C@@H](C)c1ccc(-c2ccnn2C)cc1)c1cc(N2CCC(CN3CCC(O[C@H]4C[C@H](OC(=O)N5CCN(c6cc(-c7ccccc7O)nnc6N)CC5)C4)CC3)CC2)no1 [Compound 115, (1r,3r)-3-({1-[(1-{5-[(2R)-1-[(2S,4R)-4-hydroxy-2-{[(1S)-1-[4-(1-methyl-1H-pyrazol-5-yl)phenyl]ethyl]carbamoyl}pyrrolidin-1-yl]-3-methyl-1-oxobutan-2-yl]-1,2-oxazol-3-yl}piperidin-4-yl)methyl]piperidin-4-yl}oxy)cyclobutyl 4-[3-amino-6-(2-hydroxyphenyl)pyridazin-4-yl]piperazine-1-carboxylate]
  DC50: ≥ 30 nM

## Cc1ncsc1-c1ccc([C@H](C)NC(=O)[C@@H]2C[C@@H](O)CN2C(=O)[C@H](c2cc(N3CCC(OC(=O)N4CCC(O[C@H]5C[C@H](Oc6cc(N7C8CCC7CN(c7cc(-c9ccccc9O)nnc7N)C8)ccn6)C5)CC4)CC3)no2)C(C)C)cc1 [Compound 116, 1-{5-[(2S)-1-[(2S,4R)-4-hydroxy-2-([(1S)-1-[4-(4-methyl-1,3-thiazol-5-yl)phenyl]ethyl]carbamoyl}pyrrolidin-1-yl]-3-methyl-1-oxobutan-2-yl]-1,2-oxazol-3-yl}piperidin-4-yl 4-[(1r,3r)-3-[(4-{3-[3-amino-6-(2-hydroxyphenyl)pyridazin-4-yl]-3,8-diazabicyclo[3.2.1]octan-8-yl}pyridin-2-yl)oxy]cyclobutoxy]piperidine-1-carboxylate]
  DC50: < 2.5 nM
  Dmax: > 75%

## Cc1ncsc1-c1ccc([C@H](C)NC(=O)[C@@H]2C[C@@H](O)CN2C(=O)[C@@H](c2cc(N3CCC(OC(=O)N4CCC(O[C@H]5C[C@H](Oc6cc(N7C8CCC7CN(c7cc(-c9ccccc9O)nnc7N)C8)ccn6)C5)CC4)CC3)no2)C(C)C)cc1 [Compound 117, 1-{5-[(2R)-1-[(2S,4R)-4-hydroxy-2-{[(1S)-1-[4-(4-methyl-1,3-thiazol-5-yl)phenyl]ethyl]carbamoyl}pyrrolidin-1-yl]-3-methyl-1-oxobutan-2-yl]-1,2-oxazol-3-yl}piperidin-4-yl 4-[(1r,3r)-3-[(4-{3-[3-amino-6-(2-hydroxyphenyl)pyridazin-4-yl]-3,8-diazabicyclo[3.2.1]octan-8-yl}pyridin-2-yl)oxy]cyclobutoxy]piperidine-1-carboxylate]
  DC50: < 2.5 nM
  Dmax: > 75%

## Cc1ncsc1-c1ccc([C@H](C)NC(=O)[C@@H]2C[C@@H](O)CN2C(=O)[C@H](c2cc(N3CCN(C(=O)[C@H]4C[C@H](Oc5cc(N6C7CCC6CN(c6cc(-c8ccccc8O)nnc6N)C7)ccn5)C4)CC3)no2)C(C)C)cc1 [Compound 118, (2S,4R)-4-hydroxy-N-[(1S)-1-[4-(4-methyl-1,3-thiazol-5-yl)phenyl]ethyl]-1-[(2S)-3-methyl-2-(3-{4-[(1r,3r)-3-[(4-{3-[3-amino-6-(2-hydroxyphenyl)pyridazin-4-yl]-3,8-diazabicyclo[3.2.1]octan-8-yl}pyridin-2-yl)oxy]cyclobutanecarbonyl]piperazin-1-yl}-1,2-oxazol-5-yl)butanoyl]pyrrolidine-2-carboxamide]
  DC50: < 2.5 nM
  Dmax: > 75%

## Cc1ncsc1-c1ccc([C@H](C)NC(=O)[C@@H]2C[C@@H](O)CN2C(=O)[C@@H](c2cc(N3CCC(CN4CCC5(CC4)CC(N4CCO[C@@H](CN6C7CCC6CN(c6cc(-c8ccccc8O)nnc6N)C7)C4)C5)CC3)no2)C(C)C)cc1 [Compound 119, (2S,4R)-1-[(2R)-2-{3-[4-({2-[(2R)-2-({3-[3-amino-6-(2-hydroxyphenyl)pyridazin-4-yl]-3,8-diazabicyclo[3.2.1]octan-8-yl}methyl)morpholin-4-yl]-7-azaspiro[3.5]nonan-7-yl}methyl)piperidin-1-yl]-1,2-oxazol-5-yl}-3-methylbutanoyl]-4-hydroxy-N-[(1S)-1-[4-(4-methyl-1,3-thiazol-5-yl)phenyl]ethyl]pyrrolidine-2-carboxamide]
  DC50: < 2.5 nM
  Dmax: > 75%

## Cc1ncsc1-c1ccc([C@H](C)NC(=O)[C@@H]2C[C@@H](O)CN2C(=O)[C@@H](c2cc(N3CCC(CN4CCC5(CC4)CC(N4CCC(F)(F)C(CN6C7CCC6CN(c6cc(-c8ccccc8O)nnc6N)C7)C4)C5)CC3)no2)C(C)C)cc1 (stereo partly drawn) [Compound 120, (2S,4R)-1-[(2R)-2-{3-[4-({2-[3-({3-[3-amino-6-(2-hydroxyphenyl)pyridazin-4-yl]-3,8-diazabicyclo[3.2.1]octan-8-yl}methyl)-4,4-difluoropiperidin-1-yl]-7-azaspiro[3.5]nonan-7-yl}methyl)piperidin-1-yl]-1,2-oxazol-5-yl}-3-methylbutanoyl]-4-hydroxy-N-[(1S)-1-[4-(4-methyl-1,3-thiazol-5-yl)phenyl]ethyl]pyrrolidine-2-carboxamide]
  DC50: < 2.5 nM
  Dmax: > 75%

## Cc1ncsc1-c1ccc([C@H](C)NC(=O)[C@@H]2C[C@@H](O)CN2C(=O)[C@@H](c2cc(N3CCC(CN4CCC5(CC4)CC(N4CCO[C@@H](C#CC(C)n6cc(-c7cc(-c8ccccc8O)nnc7N)cn6)C4)C5)CC3)no2)C(C)C)cc1 (stereo partly drawn) [Compound 121, (2S,4R)-1-[(2R)-2-{3-[4-({2-[(2S)-2-(3-{4-[3-amino-6-(2-hydroxyphenyl)pyridazin-4-yl]-1H-pyrazol-1-yl}but-1-yn-1-yl)morpholin-4-yl]-7-azaspiro[3.5]nonan-7-yl}methyl)piperidin-1-yl]-1,2-oxazol-5-yl}-3-methylbutanoyl]-4-hydroxy-N-[(1S)-1-[4-(4-methyl-1,3-thiazol-5-yl)phenyl]ethyl]pyrrolidine-2-carboxamide]
  DC50: < 2.5 nM
  Dmax: > 75%

## Cc1ncsc1-c1ccc([C@H](C)NC(=O)[C@@H]2C[C@@H](O)CN2C(=O)[C@@H](c2cc(N3CCC(CN4CCC5(CC4)CC(N4CCN(CC6(O)CCN(c7cc(-c8ccccc8O)nnc7N)CC6)CC4)C5)CC3)no2)C(C)C)cc1 [Compound 122, (2S,4R)-1-[(2R)-2-{3-[4-({2-[4-({1-[3-amino-6-(2-hydroxyphenyl)pyridazin-4-yl]-4-hydroxypiperidin-4-yl}methyl)piperazin-1-yl]-7-azaspiro[3.5]nonan-7-yl}methyl)piperidin-1-yl]-1,2-oxazol-5-yl}-3-methylbutanoyl]-4-hydroxy-N-[(1S)-1-[4-(4-methyl-1,3-thiazol-5-yl)phenyl]ethyl]pyrrolidine-2-carboxamide]
  DC50: < 2.5 nM
  Dmax: > 75%
